Literature values as cited in patent US7255813B2, “NADH/NADPH-containing compound” (Nutropia Ernahrungsmedizinische Forschungs GmbH, priority 2002, dated 2007).

Details: versus synthetic tocopherols

tocotrienol
antioxidative potential, times higher than that of synthetic tocopherols: 50 to 1000 times
